Read-outs that look alike come from different tables or passages of the source.
What was measured:
[1] = target: LIMK2 (Homo sapiens (Human), UniProt P53671); test: Lanthascreen Eu binding assay (TR-FRET), inhibition of LIMK2; details: Lanthascreen Eu binding assay
[2] = target: LIMK1 (Homo sapiens (Human), UniProt P53667); test: Lanthascreen Eu binding assay (TR-FRET), inhibition of LIMK1; details: Lanthascreen Eu binding assay
[3] = target: ROCK2 (Homo sapiens (Human), UniProt O75116); test: Z'Lyte assay, ROCK2 inhibition at a single concentration; format: biochemical
[4] = target: ROCK1 (Homo sapiens (Human), UniProt Q13464); test: Z'Lyte assay, ROCK1 inhibition at a single concentration; format: biochemical
[5] = read-out: % inhibition (ROCK2) 1 uM, 1 uM
[6] = read-out: % inhibition (ROCK1) 1 uM, 1 uM
[7] = read-out: % inhibition (ROCK2) 1 uM
[8] = read-out: % inhibition (ROCK1) 1 uM

Chain of LIMK1 (P53667 whole entry): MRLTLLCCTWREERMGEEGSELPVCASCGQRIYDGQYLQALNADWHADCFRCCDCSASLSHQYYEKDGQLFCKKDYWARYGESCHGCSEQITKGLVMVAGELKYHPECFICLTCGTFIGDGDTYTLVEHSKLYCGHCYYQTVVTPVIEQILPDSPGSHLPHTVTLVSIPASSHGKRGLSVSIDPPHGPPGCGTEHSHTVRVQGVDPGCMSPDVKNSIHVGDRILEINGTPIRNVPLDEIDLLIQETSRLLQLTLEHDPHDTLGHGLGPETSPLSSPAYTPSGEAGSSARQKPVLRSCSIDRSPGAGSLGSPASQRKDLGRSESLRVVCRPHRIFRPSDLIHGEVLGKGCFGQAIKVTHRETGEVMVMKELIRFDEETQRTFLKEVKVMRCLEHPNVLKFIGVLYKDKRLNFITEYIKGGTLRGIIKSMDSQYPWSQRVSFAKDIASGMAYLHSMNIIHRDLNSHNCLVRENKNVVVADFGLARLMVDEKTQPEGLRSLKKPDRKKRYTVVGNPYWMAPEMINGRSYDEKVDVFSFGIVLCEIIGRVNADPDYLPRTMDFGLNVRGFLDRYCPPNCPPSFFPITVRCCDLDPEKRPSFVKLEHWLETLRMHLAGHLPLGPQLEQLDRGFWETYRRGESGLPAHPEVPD
Chain of LIMK2 (P53671 whole entry): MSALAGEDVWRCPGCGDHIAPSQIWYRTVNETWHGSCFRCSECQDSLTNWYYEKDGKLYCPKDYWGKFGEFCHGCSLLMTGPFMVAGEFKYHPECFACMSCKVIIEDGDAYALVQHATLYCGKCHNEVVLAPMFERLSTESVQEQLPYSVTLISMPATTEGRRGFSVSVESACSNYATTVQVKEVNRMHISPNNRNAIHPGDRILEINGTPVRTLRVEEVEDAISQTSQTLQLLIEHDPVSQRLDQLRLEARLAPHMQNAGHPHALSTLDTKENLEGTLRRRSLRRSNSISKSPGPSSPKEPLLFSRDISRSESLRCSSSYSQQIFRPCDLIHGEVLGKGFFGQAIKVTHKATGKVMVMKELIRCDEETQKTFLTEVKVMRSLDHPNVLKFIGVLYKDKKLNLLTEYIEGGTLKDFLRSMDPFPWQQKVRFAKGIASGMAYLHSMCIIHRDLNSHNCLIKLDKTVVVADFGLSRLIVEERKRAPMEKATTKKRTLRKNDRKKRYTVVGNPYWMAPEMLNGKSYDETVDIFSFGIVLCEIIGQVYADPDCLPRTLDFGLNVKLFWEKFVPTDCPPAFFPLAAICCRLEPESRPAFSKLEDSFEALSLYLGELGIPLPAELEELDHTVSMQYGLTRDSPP
Chain of ROCK1 (Q13464 whole entry): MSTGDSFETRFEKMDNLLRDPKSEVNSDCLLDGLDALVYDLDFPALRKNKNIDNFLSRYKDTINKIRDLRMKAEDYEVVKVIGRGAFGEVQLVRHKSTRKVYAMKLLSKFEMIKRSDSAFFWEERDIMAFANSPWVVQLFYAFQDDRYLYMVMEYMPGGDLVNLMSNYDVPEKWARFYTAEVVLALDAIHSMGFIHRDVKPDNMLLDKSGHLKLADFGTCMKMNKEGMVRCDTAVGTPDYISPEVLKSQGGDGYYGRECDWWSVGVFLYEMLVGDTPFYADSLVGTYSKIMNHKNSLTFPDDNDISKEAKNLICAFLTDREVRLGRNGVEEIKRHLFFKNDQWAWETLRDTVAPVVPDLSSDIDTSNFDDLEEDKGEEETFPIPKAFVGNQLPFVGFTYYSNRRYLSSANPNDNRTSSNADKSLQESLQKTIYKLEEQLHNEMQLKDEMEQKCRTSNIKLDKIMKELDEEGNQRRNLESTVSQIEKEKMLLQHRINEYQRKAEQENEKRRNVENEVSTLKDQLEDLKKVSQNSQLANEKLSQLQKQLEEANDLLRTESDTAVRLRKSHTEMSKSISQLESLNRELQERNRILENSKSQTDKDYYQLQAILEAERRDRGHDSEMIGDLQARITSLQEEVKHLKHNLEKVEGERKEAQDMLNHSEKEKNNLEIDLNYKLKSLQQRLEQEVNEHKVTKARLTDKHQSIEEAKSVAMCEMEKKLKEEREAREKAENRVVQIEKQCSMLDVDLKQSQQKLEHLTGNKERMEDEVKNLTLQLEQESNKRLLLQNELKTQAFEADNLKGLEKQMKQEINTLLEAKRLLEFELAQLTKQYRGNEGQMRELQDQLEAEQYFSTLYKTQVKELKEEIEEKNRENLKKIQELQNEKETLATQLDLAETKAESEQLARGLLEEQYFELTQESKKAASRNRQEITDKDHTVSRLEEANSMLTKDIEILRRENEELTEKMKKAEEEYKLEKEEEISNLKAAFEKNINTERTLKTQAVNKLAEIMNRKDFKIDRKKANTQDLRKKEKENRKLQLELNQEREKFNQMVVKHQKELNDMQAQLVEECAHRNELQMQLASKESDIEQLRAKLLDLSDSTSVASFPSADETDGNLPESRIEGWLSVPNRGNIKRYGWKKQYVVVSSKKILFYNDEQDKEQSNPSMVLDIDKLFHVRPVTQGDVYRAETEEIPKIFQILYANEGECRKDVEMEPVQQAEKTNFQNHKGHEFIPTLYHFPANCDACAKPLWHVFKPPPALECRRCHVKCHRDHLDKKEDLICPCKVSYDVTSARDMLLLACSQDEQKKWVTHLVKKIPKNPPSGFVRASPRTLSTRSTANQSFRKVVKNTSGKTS
Chain of ROCK2 (O75116 whole entry): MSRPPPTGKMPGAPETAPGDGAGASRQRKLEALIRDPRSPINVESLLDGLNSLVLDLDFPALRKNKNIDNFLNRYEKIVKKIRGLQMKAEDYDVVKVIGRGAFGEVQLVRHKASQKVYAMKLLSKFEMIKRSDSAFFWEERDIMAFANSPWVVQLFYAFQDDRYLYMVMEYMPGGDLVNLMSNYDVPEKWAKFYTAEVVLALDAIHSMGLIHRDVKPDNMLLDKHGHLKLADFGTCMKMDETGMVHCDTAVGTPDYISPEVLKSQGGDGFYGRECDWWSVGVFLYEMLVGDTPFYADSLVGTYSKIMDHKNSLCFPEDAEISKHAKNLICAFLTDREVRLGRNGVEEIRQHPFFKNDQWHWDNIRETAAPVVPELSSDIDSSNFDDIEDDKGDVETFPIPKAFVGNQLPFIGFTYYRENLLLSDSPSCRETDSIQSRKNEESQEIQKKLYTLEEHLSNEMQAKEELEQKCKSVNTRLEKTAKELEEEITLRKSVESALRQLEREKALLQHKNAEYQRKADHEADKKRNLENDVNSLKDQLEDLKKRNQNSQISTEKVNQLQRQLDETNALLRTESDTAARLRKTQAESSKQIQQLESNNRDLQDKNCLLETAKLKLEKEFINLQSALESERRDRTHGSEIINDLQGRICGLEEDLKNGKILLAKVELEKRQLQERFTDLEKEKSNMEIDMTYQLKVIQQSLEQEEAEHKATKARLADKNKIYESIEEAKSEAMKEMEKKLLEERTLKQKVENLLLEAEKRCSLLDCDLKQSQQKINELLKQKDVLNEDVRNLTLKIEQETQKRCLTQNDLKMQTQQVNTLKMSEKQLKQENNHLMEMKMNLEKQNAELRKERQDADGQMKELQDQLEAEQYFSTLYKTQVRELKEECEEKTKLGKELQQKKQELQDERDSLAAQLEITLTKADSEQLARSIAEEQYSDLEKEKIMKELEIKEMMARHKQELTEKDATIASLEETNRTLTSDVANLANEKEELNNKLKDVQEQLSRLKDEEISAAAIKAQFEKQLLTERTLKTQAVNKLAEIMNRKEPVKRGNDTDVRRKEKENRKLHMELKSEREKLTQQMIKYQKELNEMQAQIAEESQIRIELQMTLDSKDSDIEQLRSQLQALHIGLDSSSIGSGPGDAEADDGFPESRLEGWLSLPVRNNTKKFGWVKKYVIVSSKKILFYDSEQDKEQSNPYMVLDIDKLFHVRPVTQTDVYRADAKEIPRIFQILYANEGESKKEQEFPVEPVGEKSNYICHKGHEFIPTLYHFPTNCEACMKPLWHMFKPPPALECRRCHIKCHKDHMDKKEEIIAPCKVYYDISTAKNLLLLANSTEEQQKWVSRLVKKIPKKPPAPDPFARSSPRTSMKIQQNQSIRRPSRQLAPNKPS

Row | Ki [1] [nM] | Ki [2] [nM] | inhibition at 1 µM [3, 5] [%] | inhibition at 1 µM [4, 6] [%] | Compound | other results
1 | 2.96 | 4.59 | 48 | 66 | CNC(=O)c1cccc(Oc2cccc(NC(=O)N3CC=C(c4ncnc5[nH]cc(C)c45)CC3)c2)c1 [Compound 222, 4-(5-methyl-7H-pyrrolo[2,3-d]pyrimidin-4-yl)-N-(3-(3-(methylcarbamoyl)phenoxy)phenyl)-3,6-dihydropyridine-1(2H)-carboxamide] | –
2 | 58.1 | 169 | 7 | -2 | CC(C)(C)OC(=O)NCCCOc1cccc(-c2cccc(NC(=O)N3CC=C(c4ncnc5[nH]cc(C6CC6)c45)CC3)c2)c1 [Compound 165, tert-butyl N-[3-[3-[3-[[4-(5-cyclopropyl-7H-pyrrolo[2,3-d]pyrimidin-4-yl)-3,6-dihydro-2H-pyridine-1-carbonyl]amino]phenyl]phenoxy]propyl]carbamate] | –
3 | 8.59 | 4.97 | 4 | -1 | COc1cccc(-c2cccc(NC(=O)N3CC=C(c4ncnc5[nH]c6c(c45)CCC6)CC3)c2)c1 [Compound 137, N-[3-(3-Methoxyphenyl)phenyl]-4-(7,9,11-triazatricyclo [6.4.0.02,6]dodeca-1(8),2(6),9,11-tetraen-12-yl)-3,6-dihydropyridine-1(2H)-carboxamide] | –
4 | 13.4 | 10.6 | 22 | 33 | CC(=O)NCCCOc1cccc(-c2cccc(NC(=O)N3CC=C(c4ncnc5[nH]cc(C)c45)CC3)c2)c1 [Compound 40, N-(3′-(3-Acetamidopropoxy)-[1,1′-biphenyl]-3-yl)-4-(5-methyl-7H-pyrrolo[2,3-d]pyrimidin-4-yl)-5,6-dihydropyridine-1(2H)-carboxamide] | –
5 | 49.3 | 192 | 12 | 21 | CNC(=O)c1cc(Oc2ccc(NC(=O)N3CC=C(c4ncnc5[nH]cc(C)c45)CC3)cc2)ccn1 [Compound 196, N-methyl-4-(4-(4-(5-methyl-7H-pyrrolo[2,3-d]pyrimidin-4-yl)-1,2,3,6-tetrahydropyridine-1-carboxamido)phenoxy)picolinamide] | –
6 | – | – | 69 | 79 | Cc1c[nH]c2ncnc(C3=CCN(C(=O)Nc4ccc(Cl)c(C(F)(F)F)c4)CC3)c12 [Compound 12, N-(4-Chloro-3-(trifluoromethyl)phenyl)-4-(5-methyl-7H-pyrrolo[2,3-d]pyrimidin-4-yl)-3,6-dihydropyridine-1(2H)-carboxamide] | –
7 | 189 | 174 | 93 | 99 | Cc1c[nH]c2ncnc(C3=CCN(C(=O)Nc4cccc(OCC5CCN(C)CC5)c4)CC3)c12 [Compound 195, 4-(5-methyl-7H-pyrrolo[2,3-d]pyrimidin-4-yl)-N-(3-((1-methylpiperidin-4-yl)methoxy)phenyl)-3,6-dihydropyridine-1(2H)-carboxamide] | –
8 | 68.7 | 70.4 | 15 | 26 | Cc1c[nH]c2ncnc(C3=CCN(C(=O)Nc4cccc(Oc5ccc(F)cc5)c4)CC3)c12 [Compound 202, N-(3-(4-fluorophenoxy)phenyl)-4-(5-methyl-7H-pyrrolo[2,3-d]pyrimidin-4-yl)-3,6-dihydropyridine-1(2H)-carboxamide] | –
9 | 43.6 | 34.5 | – | – | Cc1c[nH]c2ncnc(C3=CCN(C(=O)Nc4ccc(Oc5ccccc5)cc4)CC3)c12 [Compound 28, 4-(5-Methyl-7H-pyrrolo[2,3-d]pyrimidin-4-yl)-N-(4-phenoxy-phenyl)-3,6-dihydropyridine-1(2H)-carboxamide] | % inhibition (ROCK2) 1 uM ([3]; 1 uM): 35%; % inhibition (ROCK1) 1 uM ([4]; 1 uM): 76%
10 | 50.8 | 65 | 33 | 48 | Cc1c[nH]c2ncnc(C3=CCN(C(=O)Nc4cccc(OCCCNC(=O)OC(C)(C)C)c4)CC3)c12 [Compound 188, tert-Butyl (3-(3-(4-(5-methyl-7H-pyrrolo[2,3-d]pyrimidin-4-yl)-1,2,3,6-tetrahydropyridine-1-carboxamido)phenoxy)propyl)carbamate] | –
11 | 341 | 80.1 | – | – | Cc1c[nH]c2ncnc(C3=CCN(C(=O)Nc4ccc(Oc5ccccc5)cc4)CC3)c12 [Compound 16, 4-(5-Methyl-7H-pyrrolo[2,3-d]pyrimidin-4-yl)-N-(4-phenoxy-phenyl)-3,6-dihydropyridine-1(2H)-carboxamide] | % inhibition (ROCK2) 1 uM ([3]; 1 uM): 14%; % inhibition (ROCK1) 1 uM ([4]; 1 uM): 15%
12 | – | – | – | – | Cc1c[nH]c2ncnc(C3=CCN(C(=O)Nc4cccc(-n5ccnc5)c4)CC3)c12 [Compound 24, N-(3-(1H-Imidazol-1-yl)phenyl)-4-(5-methyl-7H-pyrrolo[2,3-d]pyrimidin-4-yl)-3,6-dihydropyridine-1(2H)-carboxamide] | inhibition at 1 µM [3, 7]: 25%; inhibition at 1 µM [4, 8]: 40%
13 | – | – | – | – | CC1=CC(C)=[N+]2C1=Cc1ccc(CCC(=O)NCCCOc3cccc(-c4cccc(NC(=O)N5CC=C(c6ncnc7[nH]cc(C)c67)CC5)c4)c3)n1[B-]2(F)F [Compound 169, N-(3′-(3-(3-(5,5-difluoro-7,9-dimethyl-5H-dipyrrolo[1,2-c:2′,1′-f][1,3,2]diazaborinin-3-yl)propanamido)propoxy)-[1,1′-biphenyl]-3-yl)-4-(5-methyl-7H-pyrrolo [2,3-d]pyrimidin-4-yl)-3,6-dihydropyridine-1(2H)-carboxamide] | % inhibition (ROCK1) 1 uM [4]: 10%
14 | – | – | – | – | Cc1c[nH]c2ncnc(C3=CCN(C(=O)Nc4ccc5c(c4)OCO5)CC3)c12 [Compound 14, N-(Benzo[d][1,3]dioxol-5-yl)-4-(5-methyl-7H-pyrrolo[2,3-d]pyrimidin-4-yl)-3,6-dihydropyridine-1(2H)-carboxamide] | inhibition at 1 µM [3, 7]: 59%; inhibition at 1 µM [4, 8]: 79%
15 | – | – | – | – | CC1=CC(C)=[N+]2C1=Cc1ccc(CCC(=O)NCCCOc3cccc(-c4cccc(NC(=O)N5CC=C(c6ncnc7[nH]cc(C8CC8)c67)CC5)c4)c3)n1[B-]2(F)F [Compound 168, N-(3′-(3-(3-(5,5-Difluoro-7,9-dimethyl-5H-dipyrrolo[1,2-c:2′,1′-f][1,3,2]diazaborinin-3-yl)propanamido)propoxy)-[1,1′-biphenyl]-3-yl)-4-(5-isopropyl-7H-pyrrolo[2,3-d]pyrimidin-4-yl)-3,6-dihydropyridine-1(2H)-carboxamide] | % inhibition (ROCK2) 1 uM [3]: 20%; % inhibition (ROCK1) 1 uM [4]: 2%
16 | – | 90.9 | -4 | 6 | O=C(NC1CCCCC1)N1CC=C(c2ncnc3[nH]cc(C4CC4)c23)CC1 [Compound 83, N-Cyclohexyl-4-(5-cyclopropyl-7H-pyrrolo[2,3-d]pyrimidin-4-yl)-3,6-dihydropyridine-1(2H)-carboxamide] | –

Row | Compound | Ki [1] [nM] | Ki [2] [nM] | inhibition at 1 µM [3, 5] [%] | inhibition at 1 µM [4, 6] [%] | other results
17 | O=C(Nc1ccccc1)N1CC=C(c2ncnc3[nH]c4c(c23)CCCC4)CC1 [Compound 120, N-Phenyl-4-(6,7,8,9-tetrahydro-5H-pyrimido[4,5-b]indol-4-yl)-3,6-dihydropyridine-1(2H)-carboxamide] | 29.6 | 14.9 | – | – | inhibition at 1 µM [3, 7]: -9%; inhibition at 1 µM [4, 8]: 0%
